Literature values, collected in patent US20080254143A1, “COMPOSITION FOR IMPROVING IMMUNE SYSTEM HEALTH” (priority 2007, published 2008).

Tests used:
common cold [1] = conditions: administered or recruited within 24 hrs of the onset of symptoms
common cold [2] = conditions: daily supplementation, amounts greater than 100 mg
rhinovirus = conditions: prevents formation of viral capsid proteins
TNF-α = conditions: activated macrophages (LPS/IFN-gamma-activated RAW 264.7)

Molecule: CC(=O)[O-].CC(=O)[O-].[Zn+2] [Zinc acetate]
- duration and severity of symptoms of a common cold (common cold [1]): reduce the duration and overall severity

Molecule: O=S(=O)([O-])[O-].[Zn+2] [Zinc sulphate]
- duration and severity of symptoms of a common cold (common cold [1]): reduce the duration and overall severity

Molecule: O=C1O[C@H]([C@@H](O)CO)C(O)=C1O [ascorbic acid, L-ascorbic acid]
- incidence, severity and integrated morbidity of the common cold (common cold [2]): lowers the incidence, severity and integrated morbidity

Molecule: [Zn] [zinc, Zinc]
- duration and severity of symptoms of a common cold (common cold [1]): reducing the duration and severity
- in vitro replication of the rhinovirus (rhinovirus): inhibits in vitro replication

Molecule: Anthocyanins
- TNF-α production (TNF-α): induce TNF-α production
